Laboratory results as given in patent US8541476B2, “Compounds for treatment of malignant tumors” (The Trustees of the University of Pennsylvania, priority 2007, dated 2013).
Entries after “also recorded” stand apart in the source; their conditions may differ.

Legend:
[1] = system: Nontransformed human astrocytes (NHA); assay: Modified MTS survival assay on normal human astrocytes after IR; type: cell-based; conditions: 5 μM, 8 hours or 12 hours pretreatment, versus DMSO
Description: (§1) Clonogenic survival assays were performed as described by Koumenis, et al., 2002, (Mol. Cell Biol. 22:7405-16), which reference is incorporated herein in its entirety. U251, HT-29, or A549 cells were plated at different densities in triplicate, treated with NS-123 or DMSO (alone) and irradiated 4, 8, or 12 hours later with a range of doses using ^137Cs γ-rays at a dose rate of ˜4 Gy/minute (min). One hour after irradiation, the medium was replaced with fresh medium without NS-123 or DMSO. The cells were fixed 7-14 days after IR and stained with crystal violet. Colonies greater than 50 cells were then counted and normalized against the non-irradiated controls for each treatment. […] NHA cells were plated in 24-well plates in quadruplicate at equal density, treated with equal volumes of NS-123 or DMSO (alone) and irradiated as described above. One hour after irradiation, the medium was replaced with fresh ABM. Five days later, the MTS assay was used to evaluate cell survival as above.
The objective of any combination of therapeutic agents is to achieve an improved therapeutic result, which is a function both of tumor response and of normal tissue damage. No improvement in the therapeutic result of IR is gained utilizing a drug that increases the sensitivity of both tumor and normal cells to the same extent. […]

[2] = system: γ-H2AX, P-CHK2, P-ATM, P-DNA-PKcs in U251 cells; assay: Immunoblotting of dsDNA damage-dependent signaling after IR; type: cell-based, human; conditions: U251, 30 μM 4 hours prior to IR, 6 hours after IR
Description: Following treatments, whole cell and nuclear extracts were prepared. Equal lysate volumes were loaded on 15% and 12% SDS-PAGE gels to assay for γ-H2AX and P-CHK2 proteins, respectively. To assay for P-ATM and P-DNA-PKcs protein, 30-50 μg of nuclear protein were diluted with an equal volume of 2×SDS and resolved with 6% SDS-PAGE gels. Proteins were transferred to polyvinylidene difluoride (PVDF) membranes and then incubated with either anti-γ-H2AX antibody (1:5000; Upstate, Charlottesville, Va.), anti-P-CHK2 antibody (1:1000; Cell Signaling, Beverly, Mass.), anti-phospho-ATM (pSer^1981) antibody (1:300 Calbiomchem, San Diego, Calif.), or anti-phospho-DNA-PKcs (T2609) antibody (1:500; Abcam, Cambridge, Mass.). To confirm equivalent loading and protein transfer, membranes were probed with mouse anti-human β-actin monoclonal antibody (Sigma) or anti-DNA-PKcs monoclonal antibody (25-4 at 1:5000; NeoMarkers, Fremont, Calif.). All membranes were then incubated with horseradish peroxidase-conjugated anti-mouse or anti-rabbit secondary antibodies (Santa Cruz Biotechnology). Immunoreactive bands were detected using ECL Plus chemiluminescence (Amersham Biosciences).
The levels of γ-H2AX, P-CHK2, P-ATM, and P-DNA-PKcs were assayed in U251 cells by immunoblotting at various time points after IR. Cells were treated with DMSO (control) or 30 μM NS-123 for 4 hours prior to IR. […]

U251 glioma cells = assay: Clonogenic survival assay, U251 cells; type: cell-based, human
Description: as §1
The effects of μM doses of NS-123 on clonogenic survival of U251 cells were first determined without ionizing radiation (IR). […] Treatment with a 5 μM dose for 12 hours caused a modest (30%), but statistically significant decrease in survival.
Next, the dose-dependent radiosensitizing effects of NS-123 (2.5 μM and 5.0 μM concentration) in U251 cells was determined (FIG. 4A). […] Therefore, NS-123 can act as a true radiosensitizer at low μM concentrations. Corresponding Dose Enhancement Ratios (DER) at 0.1 survival were: 1.3 (2.5 μM NS-123) and 2.0 (5.0 μM NS-123). The time-dependent radiosensitizing effects of 5.0 μM NS-123 in U251 cells was then investigated. […] Corresponding DER at 0.1 survival were: 1.2 (4 hour preincubation with NS-123), 1.4 (8 hour) and 1.9 (12 hour).

CCC(=O)c1ccc(Br)c([N+](=O)[O-])c1 [NS-123, 4′-bromo-3′-nitropropiophenone]
radiosensitization of normal human glial cells [1]: no significant increase in radiosensitization; also recorded: does not radiosensitize
levels of γ-H2AX, P-CHK2, P-DNA-PKcs and P-ATM [2]: substantially higher levels
clonogenic survival without IR (U251 glioma cells; U251, 2.5 μM for 12 hours, no IR): did not cause any significant decrease in survival
Dose Enhancement Ratio (DER) at 0.1 survival (U251 glioma cells; U251, 2.5 μM, 12 hours before IR): 1.3
radiosensitization (U251 glioma cells; U251, 2.5 μM, IR dose of 2 Gy): Radiosensitization was evident
decrease in clonogenic survival without IR (U251 glioma cells; U251, 5 μM for 12 hours, no IR): 30%
Dose Enhancement Ratio (DER) at 0.1 survival (U251 glioma cells; U251, 5.0 μM, 4 hour preincubation): 1.2
Dose Enhancement Ratio (DER) at 0.1 survival (U251 glioma cells; U251, 5.0 μM, 8 hour preincubation): 1.4
Dose Enhancement Ratio (DER) at 0.1 survival (U251 glioma cells; U251, 5.0 μM, 12 hour preincubation (time-response, FIG. 4B)): 1.9
Dose Enhancement Ratio (DER) at 0.1 survival (U251 glioma cells; U251, 5.0 μM, 12 hours before IR (dose-response, FIG. 4A)): 2.0
loss of viability without IR, time-response (U251 glioma cells; U251, 5 μM, various times, no IR): did not induce any significant loss of viability unless it was administered for 12 hours
radiosensitization, high-density plated cells (U251 glioma cells; U251 plated at high density, 30 μM 4 hour versus 5 μM 12 hour on low-density cells (data not shown)): comparable radiosensitization
